PMC9000575, “Solution Equilibrium Studies on Salicylidene Aminoguanidine Schiff Base Metal Complexes: Impact of the Hybridization with L-Proline on Stability, Redox Activity and Cytotoxicity” (Molecules, 2022)
In brackets after ≈: the same amount, converted by molar mass.

Legend:
Type in all cases: physicochemical
[1] = cyclic voltammetry of the iron complexes; details: for cathodic peak potential of the iron complexes at pH 7.6: pH 7.6, 1:2 metal-to-ligand, E vs. Ag/AgCl/KCl (Figure S13b)
From the text: Further differences were observed when the redox behavior of the iron complexes was monitored by cyclic voltammetry. In the case of SISC, only a cathodic peak could be observed in the pH range of the formation of the Fe(III) complexes (not shown), unlike for Pro-SISC-Me (Figure 8b), where quasi-reversible processes could be seen in a wide pH range (3.9–10.8). The cathodic peak measured at pH 7.6 was located at much lower potential than in the case of the SISC complex (−0.59 V vs. −0.38 V, Figure S13b). […] To reveal the coordination mode in the Fe(III)-Pro-SISC-Me complexes, crystallization experiments were performed and single crystals were obtained for the Na[Fe(III)(Pro-SISC-MeH−2)2](H2O)4 complex.
Cyclic voltammograms of the Cu(II) and Fe(III) complexes in 30% (v/v) DMSO/H2O containing 1 mM Cu(NO3)2 or 1 mM or 0.5 mM FeCl3 and 1 mM ligand were recorded at 25.0 ± 0.1 °C. Ionic strength was 0.10 M (TBAN). Measurements were performed on a conventional three-electrode system under nitrogen atmosphere using an Autolab PGSTAT 204 potentiostat/galvanostat monitored by Metrohm’s Nova software (Metrohm Autolab B.V., Utrecht, The Netherlands). Samples were purged with argon for 15 min before recording the cyclic voltammograms. Platinum electrodes were used as the working and auxiliary electrode and Ag/AgCl/3 M KCl as a reference electrode. The electrochemical system was calibrated with an aqueous solution of K3[Fe(CN)6] (E1/2 = +0.386 V vs. NHE).

[2] = stability constants of Fe(II) complexes by pH-potentiometry; details: 30% (v/v) DMSO/H2O; for logβ [Fe(II)LH−1] / logβ [Fe(II)LH−2]− / logβ [Fe(II)L]+: 25 °C, I = 0.10 M (KCl), anaerobic; for pFe(II) (−log[Fe(II)]): calculated at pH 7.4, cFe = 1 μM, cligand = 10 μM
Procedure: Complexation with Fe(II) was studied under strictly anaerobic conditions. […] Aside from the better solubility of the Pro-SISC-Me complexes, the two ligands behaved similarly and the difference between their Fe(II)-binding efficacy was minor.
(§1) The pH-potentiometric measurements for the determination of the proton dissociation constants of the ligands and the overall stability constants of the metal complexes were carried out at 25.0 ± 0.1 °C in water or in 30% (v/v) DMSO/H2O as solvent and at an ionic strength of 0.10 M (KCl). The titrations were performed with carbonate-free KOH solution of known concentration (0.10 M). The concentrations of the base and the HCl were determined by pH-potentiometric titrations. An Orion 710A pH-meter equipped with a Metrohm combined electrode (type 6.0234.100), and a Metrohm 665 Dosimat burette were used for the titrations. […] The average water ionization constant pKw was 13.76 ± 0.05 (water) or 14.52 ± 0.05 (30% (v/v) DMSO/H2O). The pH-potentiometric titrations were performed in the pH range 2.0–12.5. The initial volume of the samples was 10.0 mL. The ligand concentration was 2 mM and metal ion-to-ligand ratios of 1:1–1:3 were used. The accepted fitting of the titration curves was always less than 0.01 mL. Argon was always passed over the solutions during the titrations. The exact concentration of the ligand stock solutions together with the proton dissociation constants were determined by pH-potentiometric titrations with the use of the computer program HYPERQUAD [44]. It was also utilized to establish the stoichiometry of the complexes and to calculate the stability constants (β(MpLqHr)). β(MpLqHr) is defined for the general equilibrium pM + qL + rH ⇋ MpLqHr as β(MpLqHr) = [MpLqHr]/[M]^p[L]^q[H]^r, where M denotes the metal ion and L the completely deprotonated ligand. In all calculations exclusively, titration data were used from experiments in which no precipitate was visible in the reaction mixture.

[3] = proton dissociation constants by pH-potentiometry; details: for pK1 (H2L+) / pK2 (HL): SISC; for pK1 (H2L+) / pK2 (HL) / pK1 (H3L2+) / pK2 (H2L+) / pK3 (HL): pH-pot.; for fraction present as H2L+ at pH 7.4 / fraction present as HL at pH 7.4: based on the pKa values; for fraction present as HL at pH 7.4: HL neutral (zwitter ionic for Pro-SISC-Me); for pK1 (H3L2+) / pK2 (H2L+) / pK3 (HL): Pro-SISC-Me
Procedure: as §1

[4] = thermodynamic solubility at pH 7.4; details: 10 mM HEPES buffer, aqueous buffer, thermodynamic from solid, pH 7.4, T = 25 °C, read-out: thermodynamic solubility at pH 7.4 (S7.4)
[5] = stability constants of Cu(II) complexes by pH-potentiometry; details: for logβ [CuLH−1] / logβ [CuL]+ / logβ [CuLH−2]−: 25 °C, I = 0.10 M (KCl); for pCu(II) (−log[Cu(II)]): calculated at pH 7.4, cCu(II) = 1 μM, cligand = 10 μM
Procedure: Interaction between Pro-SISC-Me and Cu(II) ions could be studied by pH-potentiometry in water due to the adequate solubility of the species (Figure S7b), and the calculated overall stability constants are collected in Table 2. Based on the titration data, formation of only mono-ligand complexes ([CuL]^+, [CuLH−1], [CuLH−2]^−) was observed even at higher metal-to-ligand ratios. Stability constants for the complexes formed with the more lipophilic SISC were determined in the presence of 30% (v/v) DMSO/H2O (Figure S7a), and for the Cu(II)—Pro-SISC-Me system was studied as well in the same solvent system for comparison (Table 2). […] In the case of SISC, the stability constant could not be obtained for the [CuLH−2]^− species as in its formation pH range (>8) precipitation appeared in the solution. The thiosemicarbazone analogues (STSC and Pro-STSC-Me) also form exclusively mono-ligand complexes ([CuLH]^+, [CuL], [CuLH−1]^−), however, protonated complexes could not be found for SISC and Pro-SISC-Me.
as §1

Row | SMILES | cathodic peak potential of the iron complexes at pH 7.6 ([1]; 30% (v/v) DMSO/H2O) [V] | logβ [Fe(II)LH−1] [2] | logβ [Fe(II)LH−2]− [2] | logβ [Fe(II)L]+ [2] | pFe(II) (−log[Fe(II)]) [2] | fraction present as H2L+ at pH 7.4 [3] [%] | fraction present as HL at pH 7.4 [3] [%] | solubility thermodynamic [4] [mM] | logβ [CuLH−1] ([5]; 30% DMSO) | logβ [CuL]+ ([5]; 30% DMSO) | pCu(II) (−log[Cu(II)]) ([5]; 30% DMSO) | also measured
1 | N=C(N)NN=Cc1ccccc1O [SISC, 2-(2-hydroxybenzylidene)hydrazinecarboximidamide] | −0.38 | −0.73 ± 0.07 | −8.94 ± 0.08 | 7.20 ± 0.06 | 6.0 | 64 | 36 | ~2 (≈ 356 µg/mL) | 6.28 ± 0.07 | 14.74 ± 0.02 | 12.08 | cathodic peak potential of the iron complex (only a cathodic peak) ([1]; [Fe(III)L2]+ complex): −0.17 V vs. NHE; pK1 (H2L+) ([3]; 30% DMSO/H2O): 7.62 ± 0.03; pK2 (HL) ([3]; 30% DMSO/H2O): 10.63 ± 0.02; pK1 (H2L+) ([3]; H2O, 25 °C, I = 0.10 M (KCl)): 7.64 ± 0.09; pK2 (HL) ([3]; H2O, 25 °C, I = 0.10 M (KCl)): 9.96 ± 0.09
2 | Cc1cc(C=NNC(=N)N)c(O)c(CN2CCCC2C(=O)O)c1 (stereo not shown) [Pro-SISC-Me] | −0.59 | −1.08 ± 0.05 | <−11 | 6.83 ± 0.04 | 6.1 | 33 | 67 | ~10 (≈ 3190 µg/mL) | 6.57 ± 0.05 | 15.08 ± 0.02 | 13.39 | E1/2 of the Fe(III)/Fe(II) redox couple of the iron complexes ([1]; 30% (v/v) DMSO/H2O, 1:2 metal-to-ligand ratio): −0.32 V vs. NHE; pK1 (H3L2+) ([3]; 30% DMSO/H2O): 1.80 ± 0.08; pK2 (H2L+) ([3]; 30% DMSO/H2O): 7.08 ± 0.02; pK3 (HL) ([3]; 30% DMSO/H2O): 9.91 ± 0.02; pK1 (H3L2+) ([3]; H2O, 25 °C, I = 0.10 M (KCl)): 2.52 ± 0.08; pK2 (H2L+) ([3]; H2O, 25 °C, I = 0.10 M (KCl)): 7.25 ± 0.06; pK3 (HL) ([3]; H2O, 25 °C, I = 0.10 M (KCl)): 9.61 ± 0.05; logβ [CuLH−2]− ([5]; 30% DMSO): −4.42 ± 0.06; logβ [CuLH−1] ([5]; H2O): 6.96 ± 0.03; logβ [CuLH−2]− ([5]; H2O): −3.22 ± 0.04; logβ [CuL]+ ([5]; H2O): 14.99 ± 0.02; fraction of [CuL]+ at pH 7.4 ([5]; based on the stability constants): 100%; pCu(II) (−log[Cu(II)]) ([5]; H2O): 13.59
